From US11325916B1, “Spiropyrrolidine derived antiviral agents” (priority 2021, dated 2022)
Where two headings read alike, the source gives them in different places.

Key:
[1] = target: SARS-CoV-2 3CL-protease (Severe acute respiratory syndrome coronavirus 2 (2019-nCoV) (SARS-CoV-2), UniProt P0DTD1); assay: SARS-CoV-2 3C-Like (3CL) Protease Fluorescence Assay (FRET); format: biochemical
[2] = system: 229E human corona virus (hCoV); assay: 229E Live Virus Assay (MRC-5 cells, CPE, ATPlite readout); format: cell-based, hCoV-229E; details: read-out: 229E EC50
[3] = Human coronavirus 229E, MRC5, 144 h
[4] = Human coronavirus 229E, MRC5, 144 h, MRC-5 cells, hCoV-229E MOI 0.05, 6 days at 34° C., ATPlite, duplicate, ranges defined in μM

Structure (SMILES) | IC50 [1] [nM] | other results
CC(C)C[C@@H](C(=O)N1C[C@]2(C[C@H]1C#N)C(=O)Nc1ccccc12)N(C)C(=O)[C@H](Cc1ccc(F)cc1)NC(=O)OCc1ccccc1 [Example 1] | < 100 | EC50 [2, 3]: < 0.1 µM
CC(C)C[C@@H](C(=O)N1C[C@]2(C[C@H]1C#N)C(=O)Nc1ccccc12)N(C)C(=O)[C@H](Cc1ccc(F)cc1)NC(=O)C(F)(F)F [Example 2] | < 100 | EC50 [2, 4]: < 0.1 µM
COC(=O)N[C@@H](Cc1ccc(F)cc1)C(=O)N(C)[C@@H](CC(C)C)C(=O)N1C[C@]2(C[C@H]1C#N)C(=O)Nc1ccccc12 [Example 3] | < 100 | EC50 [2, 3]: < 0.1 µM
Cc1cc(C(=O)N[C@@H](Cc2ccc(F)cc2)C(=O)N(C)[C@@H](CC(C)C)C(=O)N2C[C@]3(C[C@H]2C#N)C(=O)Nc2ccccc23)no1 [Example 4] | < 100 | EC50 [2, 4]: < 0.1 µM
CN(C(=O)[C@H](Cc1ccc(F)cc1)NC(=O)OCc1ccccc1)[C@@H](CC(C)(C)C)C(=O)N1C[C@]2(C[C@H]1C#N)C(=O)Nc1ccccc12 [Example 5] | < 100 | EC50 [2, 3]: < 0.1 µM
CN(C(=O)[C@H](Cc1ccc(F)cc1)NC(=O)C(F)(F)F)[C@@H](CC(C)(C)C)C(=O)N1C[C@]2(C[C@H]1C#N)C(=O)Nc1ccccc12 [Example 6] | < 100 | EC50 [2, 4]: < 0.1 µM
CN(C(=O)[C@H](Cc1ccc(F)cc1)NC(=O)c1cc2c(F)cc(F)c(F)c2[nH]1)[C@@H](CC(C)(C)C)C(=O)N1C[C@]2(C[C@H]1C#N)C(=O)Nc1ccccc12 [Example 7] | < 100 | EC50 [2, 3]: < 0.1 µM
CN(C(=O)[C@H](Cc1ccc(F)cc1)NC(=O)NC1CC1)[C@@H](CC(C)(C)C)C(=O)N1C[C@]2(C[C@H]1C#N)C(=O)Nc1ccccc12 [Example 8] | < 100 | EC50 [2, 3]: < 0.1 µM
CN(C(=O)[C@H](Cc1ccc(F)cc1)n1cc(C2CC2)nn1)[C@@H](CC(C)(C)C)C(=O)N1C[C@]2(C[C@H]1C#N)C(=O)Nc1ccccc12 [Example 9] | < 100 | EC50 [2, 4]: < 0.1 µM
CC(C)C[C@@H](C(=O)N1C[C@]2(C[C@H]1C#N)C(=O)Nc1ccccc12)N1CC[C@H](NC(=O)OC(C)(C)C)C1=O [Example 10] | 100 to 1000 | EC50 [2, 4]: 0.1 to 1 µM
CC(C)C[C@@H](C(=O)N1C[C@]2(C[C@H]1C#N)C(=O)Nc1ccccc12)N(C)C(=O)[C@@H](NC(=O)OCc1ccccc1)C(C)(C)C [Example 11] | < 100 | EC50 [2, 3]: 0.1 to 1 µM
CC(C)C[C@@H](C(=O)N1C[C@]2(C[C@H]1C#N)C(=O)Nc1ccccc12)N(C)C(=O)[C@@H](NC(=O)C(F)(F)F)C(C)(C)C [Example 12] | < 100 | EC50 [2, 3]: 0.1 to 1 µM
COC(=O)N[C@H](C(=O)N(C)[C@@H](CC(C)C)C(=O)N1C[C@]2(C[C@H]1C#N)C(=O)Nc1ccccc12)C(C)(C)C [Example 13] | < 100 | EC50 [2, 3]: 0.1 to 1 µM
CC(C)C[C@@H](C(=O)N1C[C@]2(C[C@H]1C#N)C(=O)Nc1ccccc12)N(C)C(=O)[C@H](CC1CC1)NC(=O)OCc1ccccc1 [Example 14] | < 100 | EC50 [2, 3]: < 0.1 µM
CC(C)C[C@@H](C(=O)N1C[C@]2(C[C@H]1C#N)C(=O)Nc1ccccc12)N(C)C(=O)[C@H](CC1CC1)NC(=O)C(F)(F)F [Example 15] | < 100 | EC50 [2, 3]: < 0.1 µM
COC(=O)N[C@@H](CC1CC1)C(=O)N(C)[C@@H](CC(C)C)C(=O)N1C[C@]2(C[C@H]1C#N)C(=O)Nc1ccccc12 [Example 16] | < 100 | EC50 [2, 3]: < 0.1 µM
CC(C)C[C@@H](C(=O)N1C[C@]2(C[C@H]1C#N)C(=O)Nc1ccccc12)N(C)C(=O)[C@H](CC1CC1)NC(=O)c1ccc(F)cc1 [Example 17] | < 100 | EC50 [2, 3]: < 0.1 µM
CC(C)C[C@@H](C(=O)N1C[C@]2(C[C@H]1C#N)C(=O)Nc1ccccc12)N(C)C(=O)[C@H](Cc1ccc(F)cc1)NC(=O)c1cnccn1 [Example 18] | < 100 | EC50 [2, 3]: < 0.1 µM
CC(C)C[C@@H](C(=O)N1C[C@]2(C[C@H]1C#N)C(=O)Nc1ccccc12)N(C)C(=O)[C@H](Cc1ccc(F)cc1)NC(=O)c1ccn(C)n1 [Example 19] | < 100 | EC50 [2, 3]: < 0.1 µM
CC(C)(C)C[C@H](NC(=O)[C@H](CC1CC1)NS(=O)(=O)C1CC1)C(=O)N1C[C@]2(C[C@H]1C#N)C(=O)Nc1ccccc12 [Example 37] | < 100 | 
CC(C)(C)C[C@H](NC(=O)[C@H](CC1CC1)NC(=O)NC1CC1)C(=O)N1C[C@]2(C[C@H]1C#N)C(=O)Nc1ccccc12 [Example 38] | < 100 | 
CC(C)(C)C[C@H](NC(=O)[C@H](CC1CC1)n1cc(C2CC2)nn1)C(=O)N1C[C@]2(C[C@H]1C#N)C(=O)Nc1ccccc12 [Example 53] | < 100 | 
CC(C)(C)C[C@H](NC(=O)[C@H](CC1CC1)NC(=O)C1(c2ccccc2)CC1)C(=O)N1C[C@]2(C[C@H]1C#N)C(=O)Nc1ccccc12 [Example 71] | < 100 | 
CC(C)(C)C[C@H](NC(=O)[C@H](CC1CC1)NC(=O)C(F)(F)c1ccccc1)C(=O)N1C[C@]2(C[C@H]1C#N)C(=O)Nc1ccccc12 [Example 79] | < 100 | 
CC(C)(C)C[C@H](NC(=O)[C@H](CC1CC1)NC(=O)N1CCOCC1)C(=O)N1C[C@]2(C[C@H]1C#N)C(=O)Nc1ccccc12 [Example 84] | < 100 | 

Structure (SMILES) | IC50 [1] [nM] | other results
CC(=O)N[C@@H](CC1CC1)C(=O)N[C@@H](CC(C)(C)C)C(=O)N1C[C@]2(C[C@H]1C#N)C(=O)Nc1ccccc12 [Example 95] | < 100 | 
CC(C)(C)C[C@H](NC(=O)[C@H](CC1CC1)NC(=O)C(F)(F)F)C(=O)N1C[C@]2(C[C@H]1C#N)C(=O)Nc1ccccc12 [Example 96] | < 100 | 
CC(C)(C)C[C@H](NC(=O)[C@H](CC1CC1)NC(=O)c1ccc(F)cc1)C(=O)N1C[C@]2(C[C@H]1C#N)C(=O)Nc1ccccc12 [Example 97] | < 100 | 
CC(C)(C)C[C@H](NC(=O)[C@H](CC1CC1)NC(=O)c1cnccn1)C(=O)N1C[C@]2(C[C@H]1C#N)C(=O)Nc1ccccc12 [Example 98] | < 100 | 
Cc1cc(C(=O)N[C@@H](CC2CC2)C(=O)N[C@@H](CC(C)(C)C)C(=O)N2C[C@]3(C[C@H]2C#N)C(=O)Nc2ccccc23)no1 [Example 99] | < 100 | 
Cc1ncc(C(=O)N[C@@H](CC2CC2)C(=O)N[C@@H](CC(C)(C)C)C(=O)N2C[C@]3(C[C@H]2C#N)C(=O)Nc2ccccc23)s1 [Example 100] | < 100 | 
CC(C)(C)C[C@H](NC(=O)[C@H](CC1CC1)NC(=O)N1CCCCC1)C(=O)N1C[C@]2(C[C@H]1C#N)C(=O)Nc1ccccc12 [Example 101] | < 100 | 
CC(C)(C)C(NC(=O)C(F)(F)F)C(=O)N1CCC[C@H]1C(=O)N1C[C@]2(C[C@H]1C#N)C(=O)Nc1ccccc12 (stereo partly drawn) [Example 102] | > 1000 | 
CC(=O)N[C@@H](Cc1ccc(F)cc1)C(=O)N(C)[C@@H](CC(C)(C)C)C(=O)N1C[C@]2(C[C@H]1C#N)C(=O)Nc1ccccc12 [Example 103] | < 100 | 
CC(C)(C)C[C@H](NC(=O)[C@H](Cc1ccc(F)cc1)NC(=O)c1cnccn1)C(=O)N1C[C@]2(C[C@H]1C#N)C(=O)Nc1ccccc12 [Example 104] | < 100 | 
Cc1cc(C(=O)N[C@@H](Cc2ccc(F)cc2)C(=O)N[C@@H](CC(C)(C)C)C(=O)N2C[C@]3(C[C@H]2C#N)C(=O)Nc2ccccc23)no1 [Example 105] | < 100 | 
CN(C)[C@@H](CC1CC1)C(=O)N[C@@H](CC(C)(C)C)C(=O)N1C[C@]2(C[C@H]1C#N)C(=O)Nc1ccccc12 [Example 106] | > 1000 | 
CC(C)[C@H](NS(=O)(=O)c1ccc(F)cc1)C(=O)N(C)[C@@H](CC(C)(C)C)C(=O)N1C[C@]2(C[C@H]1C#N)C(=O)Nc1ccccc12 [Example 111] |  | EC50 ([2]; MRC-5 cells, hCoV-229E MOI 0.05, 6 days at 34° C., ATPlite, duplicate, ranges defined in μM): 0.1 to 1 µM
CC(C)C[C@@H](C(=O)N1C[C@]2(C[C@H]1C#N)C(=O)Nc1ccccc12)N(C)C(=O)[C@@H](NC(=O)C(F)(F)F)c1ccccc1 [Example 116] | < 100 | 
CC(C)C[C@@H](C(=O)N1C[C@]2(C[C@H]1C#N)C(=O)Nc1ccccc12)N(C)C(=O)[C@H](NC(=O)C(F)(F)F)c1ccccc1 [Example 117] | < 100 | 
CC(C)C[C@@H](C(=O)N1C[C@]2(C[C@H]1C#N)C(=O)Nc1ccccc12)N(C)C(=O)C(NC(=O)c1ccc(F)c(F)c1)c1ccccc1 (stereo partly drawn) [Example 118] | < 100 | 
CC(C)(C)C[C@H](NC(=O)[C@H](CC1CC1)N1CCOC1=O)C(=O)N1C[C@]2(C[C@H]1C#N)C(=O)Nc1ccccc12 [Example 119] | < 100 | 
CN(C(=O)[C@H](CC1CC1)NC(=O)c1cc(OC(F)(F)F)c2ncccc2c1)[C@@H](CC(C)(C)C)C(=O)N1C[C@]2(C[C@H]1C#N)C(=O)Nc1ccccc12 [Example 125] | < 100 | 
CN(C(=O)[C@H](CC1CC1)NC(=O)c1cc2c(F)cc(F)c(F)c2[nH]1)[C@@H](CC(C)(C)C)C(=O)N1C[C@]2(C[C@H]1C#N)C(=O)Nc1ccccc12 [Example 126] | < 100 | 
CN(C(=O)[C@H](CC1CC1)NC(=O)c1cc(F)c2nn(C3CC3)cc2c1)[C@@H](CC(C)(C)C)C(=O)N1C[C@]2(C[C@H]1C#N)C(=O)Nc1ccccc12 [Example 127] | < 100 | 
CC(=O)N[C@@H](C)C(=O)N(C)[C@@H](CC(C)(C)C)C(=O)N1C[C@]2(C[C@H]1C#N)C(=O)Nc1ccccc12 [Example 129] | < 100 | 
CC(C)C(=O)N[C@@H](C)C(=O)N(C)[C@@H](CC(C)(C)C)C(=O)N1C[C@]2(C[C@H]1C#N)C(=O)Nc1ccccc12 [Example 130] | < 100 | 
CN(C(=O)[C@H](CC1CC1)NC(=O)c1ccc(OC2CC2)c(OC2CC2)c1)[C@@H](CC(C)(C)C)C(=O)N1C[C@]2(C[C@H]1C#N)C(=O)Nc1ccccc12 [Example 131] | < 100 | 
CN(C)[C@@H](CC1CC1)C(=O)N(C)[C@@H](CC(C)(C)C)C(=O)N1C[C@]2(C[C@H]1C#N)C(=O)Nc1ccccc12 [Example 132] | 100 to 1000 | 
CC(C)C[C@@H](C(=O)N1C[C@]2(C[C@H]1C#N)C(=O)Nc1ccccc12)N(C)C(=O)[C@H](C)NC(=O)c1ccc(F)cc1 [Example 135] | < 100 | 
